Assay results published in patent publication US20070093524A1, “5-Lipoxygenase modulators” (Wyeth, priority 2005, published 2007).

Tests used:
5-LO mRNA = experiment: Downregulation of 5-LO gene expression (5-LO mRNA by real-time RT-PCR) in acetylated-LDL-stimulated macrophage cell lines; type: cell-based, human and mouse; conditions: macrophage cell line (THP-1 or J774, not specified); for inhibition at 0.1 µM: 0.1 uM compound; for inhibition at 1 µM: 1.0 uM compound; for inhibition at 0.3 µM: 0.3 uM compound; for inhibition at 3 µM: 3.0 uM compound
Procedure: A panel of LXR or PPAR modulator compounds was tested to determine whether they could downregulate 5-LO gene expression. The compounds were individually tested to determine whether they could downregulate 5-LO gene expression in human and mouse macrophage cell lines.
Preparation of Acetylated LDL: LDL was dialyzed with 500 mL phosphate buffered saline (PBS) three times. 2.5 mL of dialyzed LDL was mixed with 2.5 mL of saturated sodium acetate with continuous stirring in an ice-water bath. Acetic anhydride was added in 7 times 7.5 μL over a period of 1 hour with continuous stirring. Then, the mixture was stirred for an additional 1 hour. The solution was dialyzed against 500 mL PBS containing 0.3 mM EDTA three times. The protein concentration is determined using Bio-Rad DC protein assay kit.
Cell Culture and Compound Treatment: Human THP-1 cells were maintained in RPMI 1640 medium containing 10% Fetal Bovine Serum (FBS), 25 mM Hepes buffer, […] Genamicin, 1 mM Sodium pyruvate, and 50 μM β-mercaptoethanol. THP-1 cells were differentiated with 75 ng/mL phorbal 12,13-dibutyrate (PDBu) three days prior to assay to induce differentiation of the cells into adherent macrophages. Cells were seeded in 12 well plates in 1 mL of complete media. Each well contained 400,000 cells. The cells were stimulated with RPMI 1640 medium (1% FBS) containing 100 μg/mL acetylated-LDL in presence of phorbol ester for 48 hours, including several wells without acetylated-LDL treatment as a control. The medium was then changed to RPMI 1640 medium without FBS, plus the test compounds with phorbol ester for 48 hours. Control cells were not incubated with test compounds. The cells were incubated at 37° C. in a humidified CO2 incubator. The cells were then ready for RNA extraction.
Murine J774 cells were maintained in DMEM (high glucose) containing 10% FBS, 100 units/mL penicillin, and 100 μg/mL streptomycin. Six hours prior to assay, J774 cells were seeded into 96-well plates in 150 μL complete media. Each well contains 75,000 cells. The cells were stimulated with DMEM-high glucose (1% FBS) containing 100 μg/mL acetylated-LDL for 24 to 48 hours, including several wells without acetylated-LDL treatment as a control. The media was then changed to DMEM-high glucose (without FBS) plus the test compounds for 24 to 48 hours. Compounds were dosed in DMSO vehicle and control cells were treated with vehicle alone. The cells were incubated at 37° C. in a humidified CO2 incubator. The cells were then ready for RNA isolation.
RNA analysis: Total RNA was isolated from the THP-1 cells by using a QIAGEN RNeasy Mini Kit. Real-time quantitative RT-PCR assays were performed using an Applied Biosystems 7900 sequence detector. Each amplification mixture (50 μL) contained 50-100 ng of total RNA, 200 nM forward primer, 200 nM reverse primer, and 200 nM dual-labeled fluorogenic probe. The RT-PCR reagent is from QIAGEN (QuantiTect Probe RT-PCR kit). The RT-PCR thermocycling parameters were 48° C. for 30 minutes, 95° C. for 10 minutes, and 40 cycles at 95° C. for 15 seconds and 55° C. for 1 minute. The samples, no-RT controls, and serially diluted RNA standards were analyzed in parallel. The 5-LO target gene was analyzed and normalized for human glyceraldehyde-3-phosphate dehydrogenase (GAPDH) expression using probe and primers from predeveloped assays for GAPDH (Applied Biosystems). Quantitative analysis was performed using the threshold procedure, and relative amounts were calculated from the standard curve.
Total RNA from the J774 cells was isolated by using the ABI 6100 RNA isolation system for 96-well plates (the THP-1 cells can also be cultured and tested in 96-well plates). Real-time quantitative RT-PCR assays were performed using an Applied Biosystems 7900 sequence detector. Each amplification mixture (50 μL) contained 50-100 ng of total RNA, 200 nM forward primer, 200 nM reverse primer, and 250 nM dual-labeled fluorogenic probe.

Structure (SMILES) | inhibition at 0.1 µM (5-LO mRNA) | inhibition at 1 µM (5-LO mRNA) | inhibition at 0.3 µM (5-LO mRNA) | inhibition at 3 µM (5-LO mRNA) | melting point
CC(C)(C(=O)O)c1ccc(COc2cccc(-c3c(Cc4ccccc4)cnc4c(C(F)(F)F)cccc34)c2)cc1 [Compound I-7, 2-{4-[3-(3-Benzyl-8-trifluoromethyl-quinolin-4-yl)-phenoxymethyl]-phenyl}-2-methyl-propionic acid] | 87% | 88% | – | – | –
COC(=O)Cc1ccc(CNc2cccc(-c3c(C)cnc4c(C(F)(F)F)cccc34)c2)cc1 [Compound I-20, (4-{[3-(3-Methyl-8-trifluoromethyl-quinolin-4-yl)-phenylamino]-methyl}-phenyl)-acetic acid methyl ester] | – | – | 78% | 78% | –
NNC(=O)Cc1ccc(CNc2cccc(-c3c(Cc4ccccc4)cnc4c(C(F)(F)F)cccc34)c2)cc1 [Compound I-12, (4-{[3-(3-Benzyl-8-trifluoromethyl-quinolin-4-yl)-phenylamino]-methyl}-phenyl)-acetic acid hydrazide] | – | – | 71% | 76% | –
CC(C)(C(=O)O)c1ccc(COc2cccc(-c3c(-c4ccccc4)cnc4c(Cl)cccc34)c2)cc1 [Compound I-8, 2-{4-[3-(8-Chloro-3-phenyl-quinolin-4-yl)-phenoxymethyl]-phenyl}-2-methyl-propionic acid] | 89% | 93% | – | – | –
O=C(O)Cc1ccc(COc2cccc(-c3c(-c4ccccc4)cnc4c(Cl)cccc34)c2)cc1 [Compound I-5, {4-[3-(8-Chloro-3-phenyl-quinolin-4-yl)-phenoxymethyl]-phenyl}-acetic acid] | 87% | 91% | – | – | –
COc1cc(CNc2cccc(-c3c(Cc4ccccc4)cnc4c(C(F)(F)F)cccc34)c2)ccc1O [Compound I-17, 4-{[3-(3-Benzyl-8-trifluoromethyl-quinolin-4-yl)-phenylamino]-methyl}-2-methoxy-phenol] | – | – | 41% | 53% | –
CCOc1cc(CNc2cccc(-c3c(Cc4ccccc4)cnc4c(C(F)(F)F)cccc34)c2)ccc1O [Compound I-19, 4-{[3-(3-Benzyl-8-trifluoromethyl-quinolin-4-yl)-phenylamino]-methyl}-2-ethoxy-phenol] | – | – | 22% | 60% | –
Oc1cccc(CNc2cccc(-c3c(Cc4ccccc4)cnc4c(C(F)(F)F)cccc34)c2)c1O [Compound I-18, 3-{[3-(3-Benzyl-8-trifluoromethyl-quinolin-4-yl)-phenylamino]-methyl}-benzene-1,2-diol] | – | – | 63% | 58% | –
COC(=O)Cc1ccc(CNc2cccc(-c3c(C(=O)c4ccccc4)cnc4c(C(F)(F)F)cccc34)c2)cc1 [Compound I-11, (4-{[3-(3-Benzoyl-8-trifluoromethyl-quinolin-4-yl)-phenylamino]-methyl}-phenyl)-acetic acid methyl ester] | – | – | 74% | 71% | –
COC(=O)COc1ccc(COc2cccc(-c3c(-c4ccccc4)cnc4c(C(F)(F)F)cccc34)c2)cc1 [Compound I-23, {4-[3-(3-Phenyl-8-trifluoromethyl-quinolin-4-yl)-phenoxymethyl]-phenoxy}-acetic acid methyl ester] | – | – | 76% | 92% | –
COC(=O)C(C)c1ccc(CNc2cccc(-c3c(C)cnc4c(C(F)(F)F)cccc34)c2)cc1 (centres unmarked) [Compound I-21, 2-(4-{[3-(3-Methyl-8-trifluoromethyl-quinolin-4-yl)-phenylamino]-methyl}-phenyl)-propionic acid methyl ester] | – | – | 78% | 63% | –
COC(=O)C(C)(C)c1ccc(CNc2cccc(-c3c(C)cnc4c(C(F)(F)F)cccc34)c2)cc1 [Compound I-22, 2-Methyl-2-(4-{[3-(3-methyl-8-trifluoromethyl-quinolin-4-yl)-phenylamino]-methyl}-phenyl)-propionic acid methyl ester] | – | – | 67% | 55% | –
CCOC(=O)Cc1ccc(COc2cccc(-c3c(Cc4ccccc4)cnc4c(C(F)(F)F)cccc34)c2)cc1 [Compound I-15, {4-[3-(3-Benzyl-8-trifluoromethyl-quinolin-4-yl)-phenoxymethyl]-phenyl}-acetic acid ethyl ester] | – | – | 79% | 76% | –
CCOC(=O)Cc1ccc(COc2cccc(-c3c(-c4ccccc4)cnc4c(C(F)(F)F)cccc34)c2)cc1 [Compound I-14, {4-[3-(3-Phenyl-8-trifluoromethyl-quinolin-4-yl)-phenoxymethyl]-phenyl}-acetic acid ethyl ester] | – | – | 81% | 84% | –
Cc1cnc2c(C(F)(F)F)cccc2c1-c1cccc(OCc2ccc([C@@H](C)C(=O)O)cc2)c1 [Compound I-10, (2R)-2-{4-[3-(3-Methyl-8-trifluoromethyl-quinolin-4-yl)-phenoxymethyl]-phenyl}-propionic acid] | 86% | 83% | – | – | –
O=C(O)Cc1ccc(COc2cccc(-c3c(Cc4ccccc4)cnc4c(C(F)(F)F)cccc34)c2)cc1 [Compound I-2, {4-[3-(3-Benzyl-8-trifluoromethyl-quinolin-4-yl)-phenoxymethyl]-phenyl}-acetic acid] | 84% | 92% | – | – | –
O=C(O)Cc1ccc(COc2cccc(-c3c(-c4ccccc4)cnc4c(C(F)(F)F)cccc34)c2)cc1 [Compound I-3, {4-[3-(3-Phenyl-8-trifluoromethyl-quinolin-4-yl)-phenoxymethyl]-phenyl}-acetic acid] | 88% | 89% | – | – | 122 °C
O=C(O)Cc1ccc(CNc2cccc(-c3c(Cc4ccccc4)cnc4c(C(F)(F)F)cccc34)c2)cc1 [Compound I-1, (4-{[3-(3-Benzyl-8-trifluoromethyl-quinolin-4-yl)-phenylamino]-methyl}-phenyl)-acetic acid] | 91% | 88% | 82% | 83% | –
Cc1cnc2c(Cl)cccc2c1-c1cccc(OCc2ccc(CC(=O)O)cc2)c1 [Compound I-6, {4-[3-(8-Chloro-3-methyl-quinolin-4-yl)-phenoxymethyl]-phenyl}-acetic acid] | 62% | 81% | – | – | –
CCOC(=O)Cc1cccc(CNc2cccc(-c3c(C(=O)c4ccccc4)cnc4c(C(F)(F)F)cccc34)c2)c1 [Compound I-13, (3-{[3-(3-Benzoyl-8-trifluoromethyl-quinolin-4-yl)-phenylamino]-methyl}-phenyl)-acetic acid ethyl ester] | – | – | 40% | 30% | –
O=C(O)Cc1ccc(C#Cc2cccc(-c3c(Cc4ccccc4)cnc4c(C(F)(F)F)cccc34)c2)cc1 [Compound I-9, {4-[3-(3-Benzyl-8-trifluoromethyl-quinolin-4-yl)-phenylethynyl]-phenyl}-acetic acid] | 22% | 45% | – | – | –
Cc1cnc2c(C(F)(F)F)cccc2c1-c1cccc(OCc2ccc(CC(=O)O)cc2)c1 [Compound I-4, {4-[3-(3-Methyl-8-trifluoromethyl-quinolin-4-yl)-phenoxymethyl]-phenyl}-acetic acid] | 79% | 90% | – | – | –
